For data set [1], the system named is Klebsiella aerogenes 1522E. Briefly: In vitro anti-bacterial activity test (MIC, two-fold agar dilution). The settings on record: Mueller-Hinton agar, 10⁷ CFU/mℓ, 37°C, 18 hours, read-out: MIC. It is filed as cell-based. A general note: In agar dilution, organisms are placed on agar that contains the substance at set levels.
In data set [2] the test system is Klebsiella aerogenes 1082E. The description is as above. The format is cell-based. The settings on record: Mueller-Hinton agar, 10⁷ CFU/mℓ, 37°C, 18 hours, read-out: MIC.
Data set [3] deals with Escherichia coli DC 0. The data set is described as above. It is filed as cell-based. The settings on record: DC0, Mueller-Hinton agar, 10⁷ CFU/mℓ, 37°C, 18 hours, read-out: MIC.
Data set [4] has as its system Pseudomonas aeruginosa 9027. The description is as above. It is filed as cell-based.
In data set [5] the test system is P. mirabilis. Nature of the data set: Preventive effect on the systemic infection. It is filed as in vivo. The settings on record: Proteus mirabilis, in Mus musculus, P. mirabilis intraperitoneal infection, NMRI mice, survival on day 7, probit analysis, read-out: ED₅₀. Here is the method:
(§1) 10 fold of the pathogen which leads to 100% lethality were injected intraperitoneally to male and female NMRI mice weighing 18 to 20g. Immediately and after 4 hours, the dose of test compounds which was determined by two-fold serial dilution method was administered orally or subcutaneously; and on day 7, the effectiveness was evaluated in terms of ED₅₀ calculated from the number of survived mice by the probit analysis.

The test system of data set [6] is Staphylococcus aureus 285. Nature of the data set: In vitro anti-bacterial activity test (MIC, two-fold agar dilution). It is filed as cell-based.
The test system of data set [7] is Escherichia coli O 55. Described as above. It is filed as cell-based. The settings on record: O55, Mueller-Hinton agar, 10⁷ CFU/mℓ, 37°C, 18 hours, read-out: MIC.
For data set [8], the system named is Enterobacter cloacae P99. Described as above. It is filed as cell-based. The settings on record: Mueller-Hinton agar, 10⁷ CFU/mℓ, 37°C, 18 hours, read-out: MIC.
Data set [9] has as its system Enterobacter cloacae 1321E. The data set is described as above. The format is cell-based. The settings on record: Mueller-Hinton agar, 10⁷ CFU/mℓ, 37°C, 18 hours, read-out: MIC.
Data set [10] concerns Streptococcus pyogenes 308A. The description is as above. The settings on record: Mueller-Hinton agar, 10⁷ CFU/mℓ, 37°C, 18 hours, read-out: MIC. It is filed as cell-based.
Data set [11] is described as follows: in vivo. The settings on record: female, ICR, mouse. The protocol:
Test compounds were administered to female ICR mice weighing 20 to 25g and on day 14, LD₅₀ was calculated from the number of survived mice by the probit analysis.

The subject of data set [12] is Escherichia coli OTEM. Nature of the data set: In vitro anti-bacterial activity test (MIC, two-fold agar dilution). It is filed as cell-based. The settings on record: Mueller-Hinton agar, 10⁷ CFU/mℓ, 37°C, 18 hours, read-out: MIC.
In data set [13] the test system is Escherichia coli DC 2. Described as above. The format is cell-based. The settings on record: DC2, Mueller-Hinton agar, 10⁷ CFU/mℓ, 37°C, 18 hours, read-out: MIC.
For data set [14], the system named is Staphylococcus aureus 503. The description is as above. It is filed as cell-based.
The subject of data set [15] is Escherichia coli 1507E. The data set is described as above. The format is cell-based. The settings on record: Mueller-Hinton agar, 10⁷ CFU/mℓ, 37°C, 18 hours, read-out: MIC.
In data set [16] the test system is Salmonella typhimurium. The description is as above. The format is cell-based. The settings on record: Salmonella enterica, Mueller-Hinton agar, 10⁷ CFU/mℓ, 37°C, 18 hours, read-out: MIC.
Data set [17] has as its system Pseudomonas aeruginosa 1592E. The data set is described as above. The format is cell-based. The settings on record: Mueller-Hinton agar, 10⁷ CFU/mℓ, 37°C, 18 hours, read-out: MIC.
For data set [18], the system named is Streptococcus pyogenes 77A. Described as above. The format is cell-based.
In data set [19] the test system is Staphylococcus aureus SG 511. The description is as above. It is filed as cell-based.
The test system of data set [20] is Pseudomonas aeruginosa 1771M. The description is as above. The settings on record: 18 h. The format is cell-based.
The test system of data set [21] is Pseudomonas aeruginosa 1771. The data set is described as above. It is filed as cell-based.
For data set [22], the system named is Streptococcus faecium MD 8b. Described as above. The format is cell-based. The settings on record: Enterococcus faecium, MD8B.
The test system of data set [23] is S. aureus 17740. Briefly: Preventive effect on the systemic infection. The settings on record: Staphylococcus aureus, 17740, in Mus musculus, S. aureus 17740 intraperitoneal infection, NMRI mice, survival on day 7, probit analysis, read-out: ED₅₀. The format is in vivo. Here is the method: as §1
[24] abbreviates: Pseudomonas aeruginosa 9027, Mueller-Hinton agar, 10⁷ CFU/mℓ, 37°C, 18 hours, read-out: MIC.
Where [25] appears, read: Oral Administration immediately and after 4 hours.
[26] abbreviates: Subcutaneous Injection immediately and after 4 hours.
Where [27] appears, read: Staphylococcus aureus 285, Mueller-Hinton agar, 10⁷ CFU/mℓ, 37°C, 18 hours, read-out: MIC.
Where [28] appears, read: Staphylococcus aureus 503, Mueller-Hinton agar, 10⁷ CFU/mℓ, 37°C, 18 hours, read-out: MIC.
Setting [29] is: Streptococcus pyogenes 77A, Mueller-Hinton agar, 10⁷ CFU/mℓ, 37°C, 18 hours, read-out: MIC.
[30] abbreviates: SG511, Staphylococcus aureus SG 511, Mueller-Hinton agar, 10⁷ CFU/mℓ, 37°C, 18 hours, read-out: MIC.
The mark [31] stands for this setting: Pseudomonas aeruginosa 1771, Mueller-Hinton agar, 10⁷ CFU/mℓ, 37°C, 18 hours, read-out: MIC.
The mark [32] stands for this setting: Streptococcus faecium MD 8b, Mueller-Hinton agar, 10⁷ CFU/mℓ, 37°C, 18 hours, read-out: MIC.

The structures appear in SMILES notation. Values after ≈ are worked out from the molar mass of the structure shown. Read-outs that look alike come from different tables or passages of the source.

Our source for the MIC, ED50 and LD50 values is patent publication EP0549857A1, “Antibacterial quinolone carboxylic acid derivatives” (KOREA RESEARCH INSTITUTE OF CHEMICAL TECHNOLOGY, priority 1991, dated 1993).

In general, MIC refers to the lowest concentration that inhibits growth of the organism. What is called LD50 is the dose at which mortality reaches 50%.

`NC1CCC2=C1CN(c1c(F)cc3c(=O)c(C(=O)O)cn(C4CC4)c3c1Cl)C2` (centres unmarked) [Example 3, 7-[6-amino-3-azabicyclo[3,3,0]oct-1(5)ene-3-yl]-1-cyclopropyl-8-chloro-6-fluoro-1,4-dihydro-4-oxoquinoline-3-carboxylic acid]: the minimal inhibitory concentration (MIC) in data set [1] is 0.195 µg/mL (≈ 0.483 µM); in [2], 0.013 µg/mL (≈ 0.0322 µM); in [3], 0.781 µg/mL (≈ 1.93 µM); in data set [4] (setting [24]) it was 1.56 µg/mL (≈ 3.87 µM); in data set [6] (setting [27]), 0.049 µg/mL (≈ 0.121 µM); in data set [7], 0.049 µg/mL (≈ 0.121 µM). The MIC was 0.098 µg/mL (≈ 0.243 µM) in data set [8]; 0.098 µg/mL (≈ 0.243 µM) in [9]; 0.195 µg/mL (≈ 0.483 µM) in data set [10]; 0.098 µg/mL (≈ 0.243 µM) in data set [12]; 0.049 µg/mL (≈ 0.121 µM) in [13]; 0.049 µg/mL (≈ 0.121 µM) in data set [14] (setting [28]). Moreover, the MIC in data set [15] is 0.098 µg/mL (≈ 0.243 µM); in data set [16], 0.049 µg/mL (≈ 0.121 µM); in data set [17] it was 1.56 µg/mL (≈ 3.87 µM); in [18] (setting [29]), 0.049 µg/mL (≈ 0.121 µM); in data set [19] (setting [30]) it was 0.025 µg/mL (≈ 0.0619 µM); in data set [20] it was 0.391 µg/mL (≈ 0.968 µM). Besides, the minimal inhibitory concentration (MIC) in data set [21] (setting [31]) was 1.56 µg/mL (≈ 3.87 µM); in [22] (setting [32]), 0.098 µg/mL (≈ 0.243 µM). The figures for the ED50 in data set [5] (setting [25]) and in data set [5] (setting [26]) were 5.9 mg/kg and 1.43 mg/kg, respectively. For the same molecule, the results for the LD50 at 14 day in data set [11] (ip) and in [11] (po) were 731 mg/kg and 4100 mg/kg, respectively.
Turning to `O=C(O)c1cn(C2CC2)c2cc(N3CCNCC3)c(F)cc2c1=O` [Ciprofloxacin, reference compound], the minimum inhibitory concentration (MIC) came out at 0.391 µg/mL (≈ 1.18 µM) in data set [3]; 0.781 µg/mL (≈ 2.36 µM) in [4] (Pseudomonas aeruginosa, 9027, 18 h); 0.781 µg/mL (≈ 2.36 µM) in data set [6] (Staphylococcus aureus, 285, 18 h); 0.007 µg/mL (≈ 0.0211 µM) in [7]; 3.12 µg/mL (≈ 9.43 µM) in data set [10]; 0.195 µg/mL (≈ 0.589 µM) in data set [13]. The minimum inhibitory concentration (MIC) amounted to 0.781 µg/mL (≈ 2.36 µM) in [14] (Staphylococcus aureus, 503, 18 h); 0.049 µg/mL (≈ 0.148 µM) in [16]; 0.391 µg/mL (≈ 1.18 µM) in data set [17]; 0.781 µg/mL (≈ 2.36 µM) in data set [18] (Streptococcus pyogenes, 77A, 18 h); 0.781 µg/mL (≈ 2.36 µM) in [19] (Staphylococcus aureus, SG511, 18 h); 0.195 µg/mL (≈ 0.589 µM) in data set [20]. For the same molecule, the MIC in [21] (Pseudomonas aeruginosa, 1771, 18 h) came out at 0.781 µg/mL (≈ 2.36 µM); in data set [22] (18 h), 0.781 µg/mL (≈ 2.36 µM). Also, the ED50 is 0.92 mg/kg in [5] (setting [25]), 0.28 mg/kg in [5] (setting [26]), more than 200 mg/kg in data set [23] (setting [25]) and 132 mg/kg in data set [23] (setting [26]).
`COc1c(N2CC3=C(C2)C(N)CC3)c(F)cc2c(=O)c(C(=O)O)cn(C3CC3)c12` (centres unmarked) [Example 6, 7-[6-amino-3-azabicyclo[3,3,0]oct-1(5)ene-3-yl]-1-cyclopropyl-6-fluoro-8-methoxy-1,4-dihydro-4-oxoquinoline-3-carboxylic acid]: the results for the LD50 at 14 day in [11] (ip) and in data set [11] (po) were 755 mg/kg and 4300 mg/kg, respectively.
`CC1COc2c(N3CCN(C)CC3)c(F)cc3c(=O)c(C(=O)O)cn1c23` (centres unmarked) [Ofloxacin, reference compound]: the MIC in data set [1] came out at 0.098 µg/mL (≈ 0.271 µM); in data set [2], 0.025 µg/mL (≈ 0.0692 µM); in [3], 0.781 µg/mL (≈ 2.16 µM); in data set [4] (setting [24]) it was 1.56 µg/mL (≈ 4.33 µM); in data set [6] (setting [27]) it was 0.391 µg/mL (≈ 1.08 µM); in [7] it was 0.025 µg/mL (≈ 0.0692 µM). The minimal inhibitory concentration (MIC) in [8] came out at 0.098 µg/mL (≈ 0.271 µM); in data set [9] it was 0.049 µg/mL (≈ 0.136 µM); in data set [10], 3.12 µg/mL (≈ 8.65 µM); in [12], 0.049 µg/mL (≈ 0.136 µM); in data set [13], 0.391 µg/mL (≈ 1.08 µM); in data set [14] (setting [28]), 0.391 µg/mL (≈ 1.08 µM). The minimum inhibitory concentration (MIC) is 0.098 µg/mL (≈ 0.271 µM) in data set [15]; 0.098 µg/mL (≈ 0.271 µM) in data set [16]; 1.56 µg/mL (≈ 4.33 µM) in [17]; 1.56 µg/mL (≈ 4.33 µM) in data set [18] (setting [29]); 0.391 µg/mL (≈ 1.08 µM) in data set [19] (setting [30]); 0.391 µg/mL (≈ 1.08 µM) in data set [20]. In addition, the figures for the MIC in [21] (setting [31]) and in data set [22] (setting [32]) were 1.56 µg/mL (≈ 4.33 µM) and 0.781 µg/mL (≈ 2.16 µM), respectively. For the same molecule, the ED50 in [5] (setting [25]) is 2.27 mg/kg; in data set [5] (setting [26]), 0.53 mg/kg; in [23] (setting [25]), more than 200 mg/kg; in data set [23] (setting [26]), 200 mg/kg.
